Data: the NIST ThermoML archive (doi:10.1016/j.jct.2019.02.011)

Assay: xn = mol fraction of the nth substance listed
Settings: Liquid, Vibrating tube method

COC(=O)OC [dimethyl carbonate] + CCO
Settings | mass density [kg/m3]
293.15 K, 35000 kPa, x1 = 0.9477 | 1088.13
293.15 K, 35000 kPa, x1 = 0.9735 | 1093.25
293.15 K, 35000 kPa, x1 = 1 | 1098.34
293.15 K, 40000 kPa, x1 = 0.0252 | 828.8
293.15 K, 40000 kPa, x1 = 0.0506 | 838.59
293.15 K, 40000 kPa, x1 = 0.0757 | 848.05
293.15 K, 40000 kPa, x1 = 0.1003 | 857.02
293.15 K, 40000 kPa, x1 = 0.1508 | 875.19
293.15 K, 40000 kPa, x1 = 0.2 | 892.34
293.15 K, 40000 kPa, x1 = 0.2547 | 910.71
293.15 K, 40000 kPa, x1 = 0.3002 | 925.54
293.15 K, 40000 kPa, x1 = 0.3498 | 941.14
293.15 K, 40000 kPa, x1 = 0.4 | 956.41
293.15 K, 40000 kPa, x1 = 0.449 | 970.75
293.15 K, 40000 kPa, x1 = 0.4996 | 985.12
293.15 K, 40000 kPa, x1 = 0.5507 | 999.1
293.15 K, 40000 kPa, x1 = 0.6005 | 1012.2
293.15 K, 40000 kPa, x1 = 0.6455 | 1023.68
293.15 K, 40000 kPa, x1 = 0.6931 | 1035.36
293.15 K, 40000 kPa, x1 = 0.7502 | 1048.9
293.15 K, 40000 kPa, x1 = 0.8009 | 1060.46
293.15 K, 40000 kPa, x1 = 0.8505 | 1071.38
293.15 K, 40000 kPa, x1 = 0.9008 | 1082.06
293.15 K, 40000 kPa, x1 = 0.9255 | 1087.15
293.15 K, 40000 kPa, x1 = 0.9477 | 1091.64
293.15 K, 40000 kPa, x1 = 0.9735 | 1096.74
293.15 K, 40000 kPa, x1 = 1 | 1101.84
298.15 K, 100 kPa, x1 = 0.0252 | 795.08
298.15 K, 100 kPa, x1 = 0.0506 | 804.43
298.15 K, 100 kPa, x1 = 0.0757 | 813.64
298.15 K, 100 kPa, x1 = 0.1003 | 822.42
298.15 K, 100 kPa, x1 = 0.1508 | 840.14
298.15 K, 100 kPa, x1 = 0.2 | 856.81
298.15 K, 100 kPa, x1 = 0.2547 | 874.78
298.15 K, 100 kPa, x1 = 0.3002 | 889.24
298.15 K, 100 kPa, x1 = 0.3498 | 904.6
298.15 K, 100 kPa, x1 = 0.4 | 919.63
298.15 K, 100 kPa, x1 = 0.449 | 933.8
298.15 K, 100 kPa, x1 = 0.4996 | 947.93
298.15 K, 100 kPa, x1 = 0.5507 | 961.74
298.15 K, 100 kPa, x1 = 0.6005 | 974.67
298.15 K, 100 kPa, x1 = 0.6455 | 985.93
298.15 K, 100 kPa, x1 = 0.6931 | 997.5
298.15 K, 100 kPa, x1 = 0.7502 | 1010.81
298.15 K, 100 kPa, x1 = 0.8009 | 1022.25
298.15 K, 100 kPa, x1 = 0.8505 | 1033.01
298.15 K, 100 kPa, x1 = 0.9008 | 1043.58
298.15 K, 100 kPa, x1 = 0.9255 | 1048.64
298.15 K, 100 kPa, x1 = 0.9477 | 1053.11
298.15 K, 100 kPa, x1 = 0.9735 | 1058.28
298.15 K, 100 kPa, x1 = 1 | 1063.45
298.15 K, 5000 kPa, x1 = 0.0252 | 799.26
298.15 K, 5000 kPa, x1 = 0.0506 | 808.65
298.15 K, 5000 kPa, x1 = 0.0757 | 817.91
298.15 K, 5000 kPa, x1 = 0.1003 | 826.69
298.15 K, 5000 kPa, x1 = 0.1508 | 844.46
298.15 K, 5000 kPa, x1 = 0.2 | 861.18
298.15 K, 5000 kPa, x1 = 0.2547 | 879.19
298.15 K, 5000 kPa, x1 = 0.3002 | 893.65
298.15 K, 5000 kPa, x1 = 0.3498 | 909.01
298.15 K, 5000 kPa, x1 = 0.4 | 924.09
298.15 K, 5000 kPa, x1 = 0.449 | 938.26
298.15 K, 5000 kPa, x1 = 0.4996 | 952.44
298.15 K, 5000 kPa, x1 = 0.5507 | 966.24
298.15 K, 5000 kPa, x1 = 0.6005 | 979.17
298.15 K, 5000 kPa, x1 = 0.6455 | 990.48
298.15 K, 5000 kPa, x1 = 0.6931 | 1002.05
